Seven compounds from patent publication EP4467141A1, “PYRAZOLO-QUINOLINES AS SELECTIVE INHIBITORS OF GENOTOXIC STRESS-INDUCED IKK/NF- KB PATHWAYS FOR CANCER THERAPY” (Max-Delbrück-Centrum für Molekulare Medizin in der …, priority 2023, dated 2024) can be followed below.

One may read the inhibition as the change of the read-out against control, counted positive when it falls.

What all share (experiment): Kinase panel study
What all share (format): biochemical
Holding throughout (settings): for inhibition at 1 µM: 1000nM

Experiment [1] has as its target T1, PIK3CB/PIK3R1 (p110 beta/p85 alpha) (Homo sapiens, UniProt P42338).
T1 construct: purchased Thermo Fisher Scientific
As for the experimental part: (§1) The Kinase panel study was entirely provided by Thermo Fisher Scientific using the two lead compounds MW01 and MW05 as well as their derivatives (MW01-E06, MW01-E10, MW01-E14, MW01-E18, MW05-E2, MW05-E3, MW05-E9 and MW05-E10. The experiment was performed using the ZLyte or Adapta protocol according to manufacturer standard operating procedures.
(§2) Based on their similar effects in our screen and molecular analysis, MW01 and MW05 were used in comparative target deconvolution studies seeking common targets despite their distinct structures. To eliminate previously identified kinases regulating NF-κB activity, such as IKK, as possible targets of MW01 and MW05, an in vitro kinase inhibition assay was performed. […] We next investigated if any of the shared kinase targets of MW01 and MW05 play a role in genotoxic stress-induced NF-κB activity and established several criteria to narrow down pathway-relevant targets. Considering the similar NF-κB inhibition phenotypes of both compounds, we hypothesized first that the target should be shared by both lead compounds. Second, based on the CaCo2 recovery values and experimental treatment concentration of 10 µM), the putative target kinase should have a low IC50 of, at most, 2000 nM for both lead compounds in the in vitro kinase panel (Fig. 2A). Based on these criteria alone, we arrived at a relatively short list of potential targets for further analysis, leaving only PIK3CG, PIK3C2G, and CLK2 (Fig. 2B). IC50 values for PIK3C2G by both lead compounds agreed best with these criteria, but RNA expression analysis indicates high tissue specificity as well as lack of expression of this kinase in our U2-OS model cell line, which we then eliminated from further analysis (Uhlén et al., 2015). […] Table 6: Percentage of inhibition of the indicated kinases by MW01 or MW05 at either 10 µM or 1 µM. n.d. = not determined.

The target of a further experiment is T2, DYRK1A (Homo sapiens, UniProt Q13627).
T2 construct: purchased Thermo Fisher Scientific
As to the method: as §1, §2

A further experiment deals with T3, PRKCN (PKD3) (Homo sapiens, UniProt O94806).
T3 construct: purchased Thermo Fisher Scientific
T3 sequence (O94806 1-890): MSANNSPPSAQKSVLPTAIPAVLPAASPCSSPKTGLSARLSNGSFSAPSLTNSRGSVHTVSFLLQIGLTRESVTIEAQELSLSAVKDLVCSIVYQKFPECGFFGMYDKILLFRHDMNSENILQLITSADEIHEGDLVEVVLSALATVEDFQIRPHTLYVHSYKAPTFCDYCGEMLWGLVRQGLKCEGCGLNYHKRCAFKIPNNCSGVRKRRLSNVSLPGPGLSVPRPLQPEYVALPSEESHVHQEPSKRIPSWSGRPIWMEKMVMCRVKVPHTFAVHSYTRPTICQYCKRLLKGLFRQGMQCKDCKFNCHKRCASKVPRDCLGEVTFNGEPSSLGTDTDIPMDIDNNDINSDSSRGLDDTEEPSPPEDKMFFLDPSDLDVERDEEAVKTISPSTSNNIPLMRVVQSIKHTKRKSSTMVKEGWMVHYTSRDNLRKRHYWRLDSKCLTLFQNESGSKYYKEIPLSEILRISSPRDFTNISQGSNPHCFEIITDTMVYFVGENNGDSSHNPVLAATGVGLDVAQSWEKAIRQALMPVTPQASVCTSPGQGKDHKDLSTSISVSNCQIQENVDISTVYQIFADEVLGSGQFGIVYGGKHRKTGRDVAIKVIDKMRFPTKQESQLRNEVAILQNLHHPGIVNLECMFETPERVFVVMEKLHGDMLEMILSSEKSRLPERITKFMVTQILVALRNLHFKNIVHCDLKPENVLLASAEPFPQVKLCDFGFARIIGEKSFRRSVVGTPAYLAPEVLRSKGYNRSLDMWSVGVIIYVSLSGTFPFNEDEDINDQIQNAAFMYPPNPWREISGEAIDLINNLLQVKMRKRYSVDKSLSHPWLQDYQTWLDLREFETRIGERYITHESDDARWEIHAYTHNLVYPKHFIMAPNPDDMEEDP
As for the experimental part: as §1, §2

A further experiment has as its target T4, BLK (Homo sapiens, UniProt P51451).
T4 construct: purchased Thermo Fisher Scientific
As to the method: as §1, §2

The next experiment has as its target T5, PIP5K1B (Homo sapiens, UniProt O14986).
T5 construct: purchased Thermo Fisher Scientific
As to the method: as §1, §2

For another experiment, the target named is T6, PI4KB (PI4K beta) (Homo sapiens, UniProt Q9UBF8).
T6 construct: purchased Thermo Fisher Scientific
T6 sequence (Q9UBF8 whole entry): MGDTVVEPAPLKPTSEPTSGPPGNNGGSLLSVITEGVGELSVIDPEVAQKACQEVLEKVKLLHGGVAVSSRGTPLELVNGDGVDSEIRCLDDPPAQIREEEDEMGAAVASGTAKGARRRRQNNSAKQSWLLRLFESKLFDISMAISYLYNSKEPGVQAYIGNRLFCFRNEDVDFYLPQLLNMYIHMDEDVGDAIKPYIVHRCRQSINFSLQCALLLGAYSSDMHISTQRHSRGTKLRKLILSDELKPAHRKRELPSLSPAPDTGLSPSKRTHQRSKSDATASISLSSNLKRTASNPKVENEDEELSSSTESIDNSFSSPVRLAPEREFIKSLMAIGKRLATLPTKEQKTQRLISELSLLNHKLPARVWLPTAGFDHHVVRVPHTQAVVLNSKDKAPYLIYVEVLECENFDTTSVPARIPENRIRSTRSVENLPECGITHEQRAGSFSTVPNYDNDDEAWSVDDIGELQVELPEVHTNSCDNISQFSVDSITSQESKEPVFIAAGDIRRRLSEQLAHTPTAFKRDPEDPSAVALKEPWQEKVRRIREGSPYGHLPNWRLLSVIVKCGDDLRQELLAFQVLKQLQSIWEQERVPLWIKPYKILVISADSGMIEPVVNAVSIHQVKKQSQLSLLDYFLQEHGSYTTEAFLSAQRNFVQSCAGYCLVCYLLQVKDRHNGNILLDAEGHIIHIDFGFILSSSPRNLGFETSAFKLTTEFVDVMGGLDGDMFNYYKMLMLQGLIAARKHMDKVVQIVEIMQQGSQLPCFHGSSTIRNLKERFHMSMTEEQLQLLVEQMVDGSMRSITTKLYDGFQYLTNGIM
As for the experimental part: as §1, §2

In the next experiment the target is T7, IKBKB (IKK beta) (Homo sapiens, UniProt O14920).
T7 construct: purchased Thermo Fisher Scientific
T7 sequence (O14920 1-756): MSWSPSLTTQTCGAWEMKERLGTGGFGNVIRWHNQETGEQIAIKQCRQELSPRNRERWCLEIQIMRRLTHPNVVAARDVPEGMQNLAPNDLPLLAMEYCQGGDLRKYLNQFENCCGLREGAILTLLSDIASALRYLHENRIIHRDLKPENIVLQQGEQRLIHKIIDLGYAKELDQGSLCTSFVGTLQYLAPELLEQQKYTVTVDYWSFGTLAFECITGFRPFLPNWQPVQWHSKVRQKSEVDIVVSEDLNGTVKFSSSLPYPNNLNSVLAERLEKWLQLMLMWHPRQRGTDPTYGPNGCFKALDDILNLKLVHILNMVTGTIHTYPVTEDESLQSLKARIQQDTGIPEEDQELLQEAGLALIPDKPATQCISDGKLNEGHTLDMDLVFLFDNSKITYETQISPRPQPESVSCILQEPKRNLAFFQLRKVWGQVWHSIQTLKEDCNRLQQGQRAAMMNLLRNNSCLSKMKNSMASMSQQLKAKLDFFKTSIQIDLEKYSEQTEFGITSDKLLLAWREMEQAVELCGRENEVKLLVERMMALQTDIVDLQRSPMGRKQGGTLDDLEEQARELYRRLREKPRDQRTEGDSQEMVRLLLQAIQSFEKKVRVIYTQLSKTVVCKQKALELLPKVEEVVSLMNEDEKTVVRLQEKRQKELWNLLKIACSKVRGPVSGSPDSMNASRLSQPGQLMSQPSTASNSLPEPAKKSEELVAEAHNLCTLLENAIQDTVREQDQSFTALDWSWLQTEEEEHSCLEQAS
As to the method:
as §1, §2

The next experiment deals with T8, IRAK1 (Homo sapiens, UniProt P51617).
T8 construct: purchased Thermo Fisher Scientific
T8 sequence (P51617 whole entry): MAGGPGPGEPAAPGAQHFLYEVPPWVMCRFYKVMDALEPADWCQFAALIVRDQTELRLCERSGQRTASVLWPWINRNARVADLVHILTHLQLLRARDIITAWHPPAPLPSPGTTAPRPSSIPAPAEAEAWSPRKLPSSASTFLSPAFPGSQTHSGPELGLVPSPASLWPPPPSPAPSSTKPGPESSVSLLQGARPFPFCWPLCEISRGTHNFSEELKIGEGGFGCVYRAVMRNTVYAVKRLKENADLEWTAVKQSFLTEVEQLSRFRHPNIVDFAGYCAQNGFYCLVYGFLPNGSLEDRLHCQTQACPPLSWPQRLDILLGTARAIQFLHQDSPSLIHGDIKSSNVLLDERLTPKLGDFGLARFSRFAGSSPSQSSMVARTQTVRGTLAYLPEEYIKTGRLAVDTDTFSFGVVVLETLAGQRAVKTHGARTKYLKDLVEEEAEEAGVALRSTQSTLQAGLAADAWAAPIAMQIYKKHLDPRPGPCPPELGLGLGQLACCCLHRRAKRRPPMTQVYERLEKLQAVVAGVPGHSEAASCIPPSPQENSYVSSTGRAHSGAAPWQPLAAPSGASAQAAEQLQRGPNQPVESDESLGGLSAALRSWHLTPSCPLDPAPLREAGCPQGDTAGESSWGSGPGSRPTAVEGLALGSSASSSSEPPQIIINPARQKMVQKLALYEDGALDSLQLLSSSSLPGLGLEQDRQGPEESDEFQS
As to the method:
as §1, §2

The mark [2] stands for this setting: read-out: Percentage of inhibition.
[3] abbreviates: 10000nM, read-out: Percentage of inhibition.
The mark [4] stands for this setting: PIK3CB/PIK3R1, compound at 10µM, read-out: % of Inhibition.
[5] abbreviates: DYRK1A, compound at 10µM, read-out: % of Inhibition.
[6] abbreviates: PRKCN (PKD3), compound at 10µM, read-out: % of Inhibition.
Where [7] appears, read: BLK, compound at 10µM, read-out: % of Inhibition.
The mark [8] stands for this setting: PIP5K1B, compound at 10µM, read-out: % of Inhibition.
Setting [9] is: PI4KB (PI4K beta), compound at 10µM, read-out: % of Inhibition.
Where [10] appears, read: IKBKB (IKK beta), compound at 10µM, read-out: % of Inhibition.
[11] abbreviates: IRAK1, compound at 10µM, read-out: % of Inhibition.

Read-outs that look alike come from different tables or passages of the source.

T1 sequence (P42338 whole entry): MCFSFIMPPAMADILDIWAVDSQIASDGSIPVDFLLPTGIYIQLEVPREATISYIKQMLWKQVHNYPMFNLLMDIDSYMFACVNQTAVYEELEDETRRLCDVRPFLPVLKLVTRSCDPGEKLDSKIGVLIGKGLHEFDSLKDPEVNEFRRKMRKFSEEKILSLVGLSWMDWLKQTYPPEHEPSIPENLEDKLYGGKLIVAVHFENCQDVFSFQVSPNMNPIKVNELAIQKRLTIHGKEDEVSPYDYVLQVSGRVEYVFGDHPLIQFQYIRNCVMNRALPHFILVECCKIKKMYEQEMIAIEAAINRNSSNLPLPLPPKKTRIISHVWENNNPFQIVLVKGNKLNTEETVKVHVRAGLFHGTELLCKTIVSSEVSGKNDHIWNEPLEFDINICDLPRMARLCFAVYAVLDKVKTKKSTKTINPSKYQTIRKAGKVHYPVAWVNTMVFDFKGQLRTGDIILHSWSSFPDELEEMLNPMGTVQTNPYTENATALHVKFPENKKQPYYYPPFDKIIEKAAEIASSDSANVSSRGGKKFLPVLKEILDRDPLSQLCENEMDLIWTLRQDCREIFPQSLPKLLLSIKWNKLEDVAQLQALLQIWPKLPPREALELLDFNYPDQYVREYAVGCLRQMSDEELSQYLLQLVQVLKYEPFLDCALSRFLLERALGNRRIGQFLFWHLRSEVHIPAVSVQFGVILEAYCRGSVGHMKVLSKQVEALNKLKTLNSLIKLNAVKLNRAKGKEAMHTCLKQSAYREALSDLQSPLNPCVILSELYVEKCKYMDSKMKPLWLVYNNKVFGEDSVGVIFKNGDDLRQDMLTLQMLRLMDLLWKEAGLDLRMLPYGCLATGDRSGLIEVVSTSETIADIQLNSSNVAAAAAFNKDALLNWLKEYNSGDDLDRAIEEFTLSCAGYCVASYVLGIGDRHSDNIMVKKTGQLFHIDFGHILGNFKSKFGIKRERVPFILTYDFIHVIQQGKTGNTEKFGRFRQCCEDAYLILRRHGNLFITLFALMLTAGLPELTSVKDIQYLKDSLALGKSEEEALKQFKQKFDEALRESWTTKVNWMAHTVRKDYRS
T1 sequence (P27986 whole entry partner): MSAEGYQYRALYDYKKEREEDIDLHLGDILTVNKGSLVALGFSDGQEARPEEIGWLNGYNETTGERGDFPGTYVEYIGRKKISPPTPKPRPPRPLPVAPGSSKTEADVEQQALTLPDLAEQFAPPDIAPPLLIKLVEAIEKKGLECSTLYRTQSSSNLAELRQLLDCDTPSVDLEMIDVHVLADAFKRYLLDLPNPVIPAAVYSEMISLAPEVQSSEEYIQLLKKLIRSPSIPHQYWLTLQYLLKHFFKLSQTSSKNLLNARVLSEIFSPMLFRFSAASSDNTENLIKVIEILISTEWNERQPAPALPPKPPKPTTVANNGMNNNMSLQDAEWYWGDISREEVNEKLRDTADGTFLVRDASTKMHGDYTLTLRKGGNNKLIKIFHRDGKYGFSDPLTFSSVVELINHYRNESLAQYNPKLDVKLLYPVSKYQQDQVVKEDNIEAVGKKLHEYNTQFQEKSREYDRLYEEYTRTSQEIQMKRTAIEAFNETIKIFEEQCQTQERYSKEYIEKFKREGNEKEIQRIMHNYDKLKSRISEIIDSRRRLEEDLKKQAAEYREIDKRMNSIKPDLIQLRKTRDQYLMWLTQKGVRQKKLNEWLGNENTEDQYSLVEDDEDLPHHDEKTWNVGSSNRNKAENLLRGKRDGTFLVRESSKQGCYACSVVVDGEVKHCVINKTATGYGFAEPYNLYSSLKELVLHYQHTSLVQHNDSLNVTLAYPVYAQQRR
T4 sequence (P51451 whole entry): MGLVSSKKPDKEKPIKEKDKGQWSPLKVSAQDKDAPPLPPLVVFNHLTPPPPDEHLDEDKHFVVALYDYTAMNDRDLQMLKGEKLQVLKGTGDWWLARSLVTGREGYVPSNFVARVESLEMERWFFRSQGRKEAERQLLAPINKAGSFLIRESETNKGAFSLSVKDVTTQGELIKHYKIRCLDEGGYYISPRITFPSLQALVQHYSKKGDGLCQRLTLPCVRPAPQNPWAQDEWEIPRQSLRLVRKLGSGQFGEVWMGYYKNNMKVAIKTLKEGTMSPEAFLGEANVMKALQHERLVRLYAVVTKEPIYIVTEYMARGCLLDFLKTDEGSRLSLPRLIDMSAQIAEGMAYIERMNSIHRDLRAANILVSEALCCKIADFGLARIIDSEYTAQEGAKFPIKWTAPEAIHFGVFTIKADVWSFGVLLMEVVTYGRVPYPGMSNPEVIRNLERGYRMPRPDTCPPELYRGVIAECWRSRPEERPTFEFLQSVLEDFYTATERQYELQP
T5 sequence (O14986 whole entry): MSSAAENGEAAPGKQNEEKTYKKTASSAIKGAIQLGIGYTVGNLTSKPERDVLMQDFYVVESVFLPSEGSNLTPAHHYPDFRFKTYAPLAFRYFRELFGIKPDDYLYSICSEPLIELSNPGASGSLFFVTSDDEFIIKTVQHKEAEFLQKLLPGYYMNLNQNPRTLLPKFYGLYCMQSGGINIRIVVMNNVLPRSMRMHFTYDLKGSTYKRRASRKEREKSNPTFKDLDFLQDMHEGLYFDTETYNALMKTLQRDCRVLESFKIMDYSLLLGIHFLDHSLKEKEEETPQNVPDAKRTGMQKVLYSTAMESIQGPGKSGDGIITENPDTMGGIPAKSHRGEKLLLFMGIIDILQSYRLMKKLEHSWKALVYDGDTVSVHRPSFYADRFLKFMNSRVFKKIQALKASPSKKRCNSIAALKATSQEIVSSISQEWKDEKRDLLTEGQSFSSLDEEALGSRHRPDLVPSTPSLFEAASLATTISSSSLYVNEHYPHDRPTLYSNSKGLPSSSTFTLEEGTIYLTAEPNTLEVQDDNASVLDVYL

As for `COc1ccc2c(c1OC)c(=O)n1c3ccc(O)cc3c3ccnc2c31` [MW01, 5-Hydroxy-10,11-dimethoxy-9H-benzo[c]indolo[3,2,1-ij][1,5]naphthyridin-9-one], the inhibition at 1 µM in experiment [1] (setting [2]) is 30%; on DYRK1A (setting [2]) it was 80%; at PRKCN (PKD3) (setting [2]) it was 34%; on BLK (setting [2]) it was 8%; at PIP5K1B (setting [2]), 4%; at PI4KB (PI4K beta) (setting [2]), 94%. Besides, the figures for the inhibition at 1 µM at IKBKB (IKK beta) (setting [2]) and on IRAK1 (setting [2]) were 4% and 57%, respectively. The inhibition at 10 µM in experiment [1] (setting [3]) came to 67%; on DYRK1A (setting [3]), 90%; at PRKCN (PKD3) (setting [3]), 57%; at BLK (setting [3]), 26%; on PIP5K1B (setting [3]), 21%; at PI4KB (PI4K beta) (setting [3]), 100%. For the same compound, the inhibition at 10 µM on IKBKB (IKK beta) (setting [3]) was found to be 12%; at IRAK1 (setting [3]), 67%.
For the compound `COc1ccc2c(c1)c1ccnc3c4nc(OC)ccc4c(=O)n2c13` [MW01-E6, 5,15-dimethoxy-1,11,14-triazapentacyclo[10.7.1,0^2,7.0^8,^20.0^13,^18]icosa-2(7),3,5,8(20),9,11,13(18),14,16-nonaen-19-one], the inhibition at 10 µM was 13% in experiment [1] (setting [4]); 14% on DYRK1A (setting [5]); -8% at PRKCN (PKD3) (setting [6]); 23% at BLK (setting [7]); 14% at PIP5K1B (setting [8]); 12% at PI4KB (PI4K beta) (setting [9]). Also, the inhibition at 10 µM at IKBKB (IKK beta) (setting [10]) stood at 10%; at IRAK1 (setting [11]) it was 56%.
With `O=c1c2cc(O)ccc2c2nccc3c4cc(O)ccc4n1c32` [MW01-E10, 5,16-dihydroxy-1,11-diazapentacyclo[10.7.1.0^2,^7.0^8,^20.0^13,^18]icosa-2(7),3,5,8(20),9,11,13(18),14,16-nonaen-19-one], the inhibition at 10 µM was 34% in experiment [1] (setting [4]); 56% on DYRK1A (setting [5]); 74% on PRKCN (PKD3) (setting [6]); 42% on BLK (setting [7]); 5% on PIP5K1B (setting [8]); 90% on PI4KB (PI4K beta) (setting [9]). Further, the results for the inhibition at 10 µM at IKBKB (IKK beta) (setting [10]) and at IRAK1 (setting [11]) were 31% and 71%, respectively.
Regarding `COc1ccc2c(c1)c1ccnc3c4ccnc(OC)c4c(=O)n2c13` [MW01-E14, 5,17-dimethoxy-1,11,16-triazapentacyclo[10.7.1.0^2,^7.0^8,^20.0^13,^18]icosa-2(7),3,5,8(20),9,11,13(18),14,16-nonaen-19-one], the inhibition at 10 µM was 26% in experiment [1] (setting [4]); 12% on DYRK1A (setting [5]); -1% on PRKCN (PKD3) (setting [6]); 9% on BLK (setting [7]); 26% at PIP5K1B (setting [8]); 36% on PI4KB (PI4K beta) (setting [9]). The inhibition at 10 µM on IKBKB (IKK beta) (setting [10]) was 16%; at IRAK1 (setting [11]) it was 9%.
Consider `O=c1c2cnccc2c2nccc3c4cc(O)ccc4n1c32` [MW01-E18, 5-hydroxy-1,11,16-triazapentacyclo[10.7.1.0^2,^7.0^8,^20.0^13,^18]icosa-2(7),3,5,8(20),9,11,13(18),14,16-nonaen-19-one], for which the inhibition at 10 µM in experiment [1] (setting [4]) is 62%; at DYRK1A (setting [5]), 65%; on PRKCN (PKD3) (setting [6]), 52%; on BLK (setting [7]), 23%; at PIP5K1B (setting [8]), -3%; on PI4KB (PI4K beta) (setting [9]), 81%. Also, the inhibition at 10 µM on IKBKB (IKK beta) (setting [10]) worked out at 16%; at IRAK1 (setting [11]), 69%.
In the case of `COc1ccc2cc3c(N)nn(C(=O)c4cccc(N(C)C)c4)c3nc2c1` [MW05, (3-Amino-7-methoxypyrazolo[3,4-b]quinolin-1-yl)-[3-(dimethylamino)phenyl]methanone], the inhibition at 1 µM in experiment [1] (setting [2]) was 21%; at DYRK1A (setting [2]), 22%; at PRKCN (PKD3) (setting [2]) it was 17%; at BLK (setting [2]) it was 0%; at PIP5K1B (setting [2]), -13%; at PI4KB (PI4K beta) (setting [2]), -2%. The inhibition at 1 µM on IKBKB (IKK beta) (setting [2]) was determined as 6%; on IRAK1 (setting [2]), 17%. Besides, the inhibition at 10 µM was 67% in experiment [1] (setting [3]); 60% on DYRK1A (setting [3]); 15% at PRKCN (PKD3) (setting [3]); -1% at BLK (setting [3]); 7% at PIP5K1B (setting [3]); 43% on PI4KB (PI4K beta) (setting [3]). In addition, the figures for the inhibition at 10 µM on IKBKB (IKK beta) (setting [3]) and on IRAK1 (setting [3]) were 5% and -7%, respectively.
Regarding `COc1ccc2nc3c(cc2c1)c(N)nn3C(=O)c1cccc(N(C)C)c1` [MW05-E2, 1-[3-(dimethylamino)benzoyl]-6-methoxy-1H-pyrazolo[3,4-b]quinolin-3-amine], the inhibition at 10 µM in experiment [1] (setting [4]) is 1%; on DYRK1A (setting [5]), 53%; on PRKCN (PKD3) (setting [6]) it was 7%; at BLK (setting [7]), 10%; on PIP5K1B (setting [8]), -12%; on PI4KB (PI4K beta) (setting [9]), 9%. Besides, the inhibition at 10 µM on IKBKB (IKK beta) (setting [10]) came to 12%; on IRAK1 (setting [11]) it was 2%.
